The source of these data is paper doi:10.1101/2024.03.13.583470v1, “SARS-CoV-2 methyltransferase nsp10-16 in complex with natural and drug-like purine analogs for guiding structure-based drug discovery” (biorxiv, 2024).

The experiment has as its target T1, nsp10-16 (Severe acute respiratory syndrome coronavirus 2, UniProt P0DTD1).
T1 construct: gene rep
The experiment can be described thus: X-ray crystallography, soaking. Type of experiment: binding. Conditions: SAM site, fully replaces SAM; 10 mM soak, pH 6.5.

Molecules are shown by their SMILES.

`Nc1ncnc2c1c(I)cn2[C@@H]1O[C@H](CO)[C@@H](O)[C@H]1O` [5-iodotubercidin]: the “X-ray crystallography, soaking” value was “toyocamycin, sangivamycin and 5-iodotubercidin share the same orientation as tubercidin”. For `N#Cc1cn([C@@H]2O[C@H](CO)[C@@H](O)[C@H]2O)c2ncnc(N)c12` [toyocamycin] the value was “toyocamycin, sangivamycin and 5-iodotubercidin share the same orientation as tubercidin”.
